Measurements published in US20110152089A1, “HERBICIDAL COMPOSITIONS COMPRISING FLUFENACET” (Bayer CropScience AG, priority 2009, published 2011).

Experiments:
STEME [1] = experiment: Resistant biotypes, PE application, greenhouse (Table 6); assay type: in vivo, Stellaria media; settings: g of AS/ha: (A) 90, (B) 300, (C) 140, (A)+(B)+(C) 120 + 600 + 140, iodosulfuron 10; for activity STEME resistant: resistant biotype; for activity STEME sensitive: sensitive biotype
Experimental: (§1) In the standard design of the test, seeds of various broad-leaved weed and weed grass biotypes (origins) were sown in a 8-13 cm diameter pot filled with natural soil of a standard field soil (loamy silt; non-sterile) and covered with a covering soil layer of about 1 cm. The pots were then cultivated in a greenhouse (12-16 h of light, temperature day 20-22° C., night 15-18° C.) until the time of application. The pots were treated on a laboratory track sprayer with spray liquors comprising the compositions according to the invention, mixtures of the prior art or components used individually. Application of the active compounds or active compound combinations formulated as WG, WP, EC or otherwise was carried out at the appropriate growth stages of the plants. The application rate for the spray application was 100-600 l of water/ha. After the treatment, the plants were returned to the greenhouses.
(§2) About 3 weeks after the application, the soil action or/and foliar action was assessed visually according to a scale of 0-100% in comparison to an untreated comparative group: 0%=no noticeable effect compared to the untreated comparative group; 100%=full effect compared to the untreated comparative group.
(§3) (notes: the term “seeds” also includes vegetative propagation forms such as, for example, rhizome pieces; abbreviations used: h light=hours of illumination, g of AS/ha=gram of active substance per hectare, l/ha=liter per hectare, S=sensitive, R=resistant) • 1. Pre-emergence action against weeds: seeds of various broad-leaved weed and weed grass biotypes (origins) were sown in a 8-13 cm diameter pot filled with natural soil of a standard field soil (loamy silt; non-sterile) and covered with a covering soil layer of about 1 cm. The pots were then cultivated in a greenhouse (12-16 h of light, temperature day 20-22° C., night 15-18° C.) until the time of application. The pots were treated at the BBCH stage 00-10 of the seeds/plants on a laboratory track sprayer with spray liquors comprising the compositions according to the invention, mixtures or components used individually, as WG, WP, EC or other formulations. The application rate for the spray application was 100-600 l of water/ha. After the treatment, the plants were returned to the greenhouses and, when required, treated with fertilizer and watered. • 2. Post-emergence action against weeds: seeds of various broad-leaved weed and weed grass biotypes (origins) were sown in a 8-13 cm diameter pot filled with natural soil of a standard field soil (loamy silt; non-sterile) and covered with a covering soil layer of about 1 cm. The pots were then cultivated in a greenhouse (12-16 h of light, temperature day 20-22° C., night 15-18° C.) until the time of application. The pots were treated at various BBCH stages between 11-25 of the seeds/plants, i.e. generally between two to three weeks after the start of the cultivation, on a laboratory track sprayer with spray liquors comprising the compositions according to the invention, mixtures or components used individually, as WG, WP, EC or other formulations. The application rate for the spray application was 100-600 l of water/ha. After the treatment, the plants were returned to the greenhouses and, when required, treated with fertilizer and watered. • 3. Pre-emergence action against weeds with and without incorporation of active compound: seeds of various broad-leaved weed and weed grass biotypes (origins) were sown in a 8-13 cm diameter pot filled with natural soil of a standard field soil (loamy silt; non-sterile). […]

STEME [2] = experiment: PE soil application vs incorporation into the soil, greenhouse (Table 1); assay type: in vivo, Stellaria media; settings: g of AS/ha: (A) 90, (B) 300, (C) 70, (A)+(B)+(C) 90 + 300 + 70, visual, about 3 weeks after application
Experimental: as §1, §2, §3

HORVS [3] = experiment: PE soil application vs incorporation into the soil, crop selectivity, greenhouse (Table 1); assay type: in vivo, Hordeum vulgare, summer barley; settings: g of AS/ha: (A) 90, (B) 300, (C) 70, (A)+(B)+(C) 90 + 300 + 70, visual, about 3 weeks after application
Experimental: as §1, §2, §3

POAAN = experiment: PO application, greenhouse (Table 2); assay type: in vivo, Poa annua; settings: g of AS/ha: (A) 120, (B) 1200, (C) 140, (A)+(B)+(C) 120 + 1200 + 140, visual, about 3 weeks after application
Experimental: as §1, §2
(§4) (notes: the term “seeds” also includes vegetative propagation forms such as, for example, rhizome pieces; abbreviations used: h light=hours of illumination, g of AS/ha=gram of active substance per hectare, l/ha=liter per hectare, S=sensitive, R=resistant) • 1. Pre-emergence action against weeds: seeds of various broad-leaved weed and weed grass biotypes (origins) were sown in a 8-13 cm diameter pot filled with natural soil of a standard field soil (loamy silt; non-sterile) and covered with a covering soil layer of about 1 cm. The pots were then cultivated in a greenhouse (12-16 h of light, temperature day 20-22° C., night 15-18° C.) until the time of application. […]

HORVS [4] = experiment: PO application, crop selectivity, greenhouse (Table 2); assay type: in vivo, Hordeum vulgare, summer barley; settings: g of AS/ha: (A) 120, (B) 1200, (C) 140, (A)+(B)+(C) 120 + 1200 + 140, visual, about 3 weeks after application
Experimental: as §1, §2, §4

HORVS [5] = experiment: PE application vs pre-sowing application, crop selectivity, greenhouse (Table 3); assay type: in vivo, Hordeum vulgare, summer barley; settings: g of AS/ha: (A) 90, (B) 300, (C) 140, (A)+(B)+(C) 90 + 300 + 140
Experimental: as §1, §2, §3

MATCH [6] = experiment: PE application with different irrigation, greenhouse (Table 4); assay type: in vivo, Matricaria chamomilla; settings: g of AS/ha: (A) 90, (B) 300, (C) 140, (A)+(B)+(C) 90 + 300 + 140
Experimental: as §1, §2, §3

AVEFA = experiment: as above; assay type: in vivo, Avena fatua; settings: g of AS/ha: (A) 90, (B) 300, (C) 140, (A)+(B)+(C) 90 + 300 + 140
Experimental: as §1, §2, §3

HORVS [7] = experiment: PE application with different irrigation, crop selectivity, greenhouse (Table 4); assay type: in vivo, Hordeum vulgare, summer barley; settings: g of AS/ha: (A) 90, (B) 300, (C) 140, (A)+(B)+(C) 90 + 300 + 140
Experimental: as §1, §2, §3

STEME [8] = experiment: Activity with different soil types, greenhouse (Table 5); assay type: in vivo, Stellaria media; settings: g of AS/ha: (A) 90, (B) 300, (C) 140, (A)+(B)+(C) 90 + 300 + 140
Experimental: as §1, §2, §3

VIOAR = experiment: as above; assay type: in vivo, Viola arvensis; settings: g of AS/ha: (A) 90, (B) 300, (C) 140, (A)+(B)+(C) 90 + 300 + 140
Experimental: as §1, §2, §3

HORVS [9] = experiment: Activity with different soil types, crop selectivity, greenhouse (Table 5); assay type: in vivo, Hordeum vulgare, summer barley; settings: g of AS/ha: (A) 90, (B) 300, (C) 140, (A)+(B)+(C) 90 + 300 + 140
Experimental: as §1, §2, §3

HORVS [10] = experiment: Different sowing depths, PE application, crop selectivity, greenhouse (Table 7); assay type: in vivo, Hordeum vulgare, summer barley; settings: g of AS/ha: (A) 90, (B) 300, (C) 140, (A)+(B)+(C) 90 + 300 + 140
Experimental: as §1, §2, §3

HORVS [11] = experiment: Different soil pH, PE application, crop selectivity, greenhouse (Table 8); assay type: in vivo, Hordeum vulgare, summer barley
Experimental: as §1, §2, §3

TRZAW = experiment: as above; assay type: in vivo, Triticum aestivum, winter wheat
Experimental: as §1, §2, §3

MATCH [12] = experiment: Different soil pH, PE application, greenhouse (Table 8); assay type: in vivo, Matricaria chamomilla
Experimental: as §1, §2, §3

[13] = IU soil (loamy silt standard field soil)
[14] = IU/EC73 soil (heavy soil, higher organic substance)
[15] = soil pH 7.4, g of AS/ha: (A) 90, (B) 300, (C) 140, (A)+(B)+(C) 90 + 300 + 140
[16] = soil pH 8.4, g of AS/ha: (A) 90, (B) 300, (C) 140, (A)+(B)+(C) 90 + 300 + 140

In the case of COc1nc(C)nc(NC(=O)NS(=O)(=O)c2cc(I)ccc2C(=O)O)n1 [iodosulfuron], the “activity STEME resistant” value (STEME [1]) is reported as 40% and the “activity STEME sensitive” value (STEME [1]) is reported as 90%.
For CC(C)N(C(=O)COc1nnc(C(F)(F)F)s1)c1ccc(F)cc1 [(A) flufenacet, N-(4-fluorophenyl)-N-(1-methylethyl)-2-[[5-(trifluoromethyl)-1,3,4-thiadiazol-2-yl]oxy]acetamide], the “activity STEME” value (STEME [2]; PE application) was 0%, the “activity STEME” value (STEME [2]; incorporation into the soil) was 20% and the “activity HORVS (crop plant)” value (HORVS [3]; PE application) was 20%. For the same compound, the “activity HORVS (crop plant)” value (HORVS [3]; incorporation into the soil) was 60%, the “activity POAAN” value (POAAN) was 60% and the “activity HORVS (crop plant)” value (HORVS [4]) was 40%. For the same compound, the “activity HORVS (crop plant)” value (HORVS [5]; PE application) was 20%, the “activity HORVS (crop plant)” value (HORVS [5]; application 7 days prior to sowing) was 40% and the “activity MATCH” value (MATCH [6]; irrigation from above) was 49%. The “activity MATCH” value (MATCH [6]; irrigation from below) was 15%, the “activity AVEFA” value (AVEFA; irrigation from above) was 92% and the “activity AVEFA” value (AVEFA; irrigation from below) was 63%. The “activity HORVS (crop plant)” value (HORVS [7]; irrigation from above) was 95%, the “activity HORVS (crop plant)” value (HORVS [7]; irrigation from below) was 80% and the “activity STEME IU soil” value (STEME [8]; [13]) was 0%. For the same compound, the “activity STEME IU/EC73 soil” value (STEME [8]; [14]) was 0%, the “activity VIOAR IU soil” value (VIOAR; [13]) was 0% and the “activity V18 VIOAR IU/EC73 soil” value (VIOAR; [14]) was 0%. The “activity HORVS IU soil (crop plant)” value (HORVS [9]; [13]) was 10%, the “activity HORVS IU/EC73 soil (crop plant)” value (HORVS [9]; [14]) was 0% and the “activity STEME resistant” value (STEME [1]) was 0%. The “activity STEME sensitive” value (STEME [1]) was 0%, the “activity HORVS 5 mm (crop plant)” value (HORVS [10]; sowing depth 5 mm) was 30% and the “activity HORVS 20 mm (crop plant)” value (HORVS [10]; sowing depth 20 mm) was 20%. The “activity HORVS pH 7.4 (crop plant)” value (HORVS [11]; [15]) was 10%, the “activity HORVS pH 8.4 (crop plant)” value (HORVS [11]; [16]) was 10% and the “activity TRZAW pH 7.4 (crop plant)” value (TRZAW; [15]) was 0%. The “activity TRZAW pH 8.4 (crop plant)” value (TRZAW; [16]) was 20%, the “activity MATCH pH 7.4” value (MATCH [12]; [15]) was 5% and the “activity MATCH pH 8.4” value (MATCH [12]; [16]) was 0%.
